Laboratory results from article PMC5730985 (Analytical biochemistry, 2017).
Read-outs that look alike come from different tables or passages of the source.

System: PLR3
Test: light-based bioluminescence assay
Assay type: biochemical, Photinus pyralis
Conditions: pH 7.4

Structure (SMILES)	Km (read-out: Km (μM) / Mg-ATP, co-substrate LH2, O2, Mg complex) [µM]	Km (read-out: Km (μM) / LH2, co-substrate Mg-ATP, O2) [µM]
Nc1ncnc2c1ncn2[C@@H]1O[C@H](COP(=O)(O)OP(=O)(O)OP(=O)(O)O)[C@@H](O)[C@H]1O [Mg-ATP]	12 ± 2	–
O=C(O)[C@H]1CSC(c2nc3ccc(O)cc3s2)=N1 [LH2]	–	17 ± 3
